Measured values taken from US11766434B2, “Pyrimidinone derivatives as CDC7 inhibitors” (Cancer Research Technology Limited, priority 2016, dated 2023).

Target: Cdc7 (Homo sapiens, UniProt O00311)
Assay: Cdc7 cell pharmacodynamics assay Method 1: pS53MCM2 levels in HCT116 cells
Assay type: cell-based
Set-up: endogenous in cells
Conditions: 6 hours treatment, read-out: Biomarker Method 1 (pEC50) (converted)
From the text: This protocol describes a method to investigate the inhibition of Cdc7 activity of compounds by measuring pS53MCM2 levels in cells after treatment.
• HCT116 cells (wild type P53 positive) • McCoys 5A media (PAA Laboratories Ltd, E15-022) • 10% FCS (Sera Laboratories International Ltd, EU000F Batch: 108005) • 100× L-Glutamine (Invitrogen, 25030-024) • D-PBS without CaCl2 and MgCl2 (Invitrogen, ref. 14190-094) • Trypsin/EDTA (Invitrogen 25300-054) • 2% BSA in PBS • Cell Extraction Buffer (Invitrogen FNN0011) • Protease inhibitor cocktail (Sigma P-2714) • PMSF 0.3M stock in DMSO (Sigma P7626) • Antibody—rabbit pMCM2 Ser53 (Bethyl #A300-756A) • Antibody—goat MCM2 (Bethyl #A300-122A) • Antibody—goat Anti Rabbit IgG HRP (Perbio Science UK Ltd 31462) • 1×PBS • FACE Wash buffer (0.02% Triton X100 in 1×PBS) • SuperSignal ELISA Pico Chemiluminescent Substrate (Perbio Science UK Ltd 37070) Method • 72 hours prior to the start of the experiment plate 1×10^6 HCT116 cells in a 150 cm^2 flask in complete McCoys 5A media (+10% FCS+1× L-glutamine). • Plate 20,000 HCT116 cells per well in standard TC treated 96 well plate in 100 μL complete McCoys 5A media. • Allow cells to settle overnight in incubator set at 37° C. and 5% CO2. • Remove intermediate plate from fridge and place at 37° C. overnight to allow to equilibrate. • Cell treatment: cell assay plate 100 μL; daughter to cell transfer volume 3.33 μL; daughter volume 45 μL; mother plate to daughter volume 5 μL. • Once all cells are treated remove the cells to the incubator and incubate for 6 hours. • Dilute the capture antibody (total MCM2 #A300-122A) 1 in 250 in the required volume of PBS (5 mL per assay plate) and add 50 μL to each well of a Hybond plate excluding wells 12E to 12H. In these wells add 50 μL PBS. Seal the plate and incubate at room temperature fora minimum of 2 hours. • Defrost aliquot of Invitrogen Cell Extraction Buffer (FNN0011) on ice and supplement with appropriate volume of both Sigma protease inhibitor cocktail (P-2714) and PMSF (final cone 1 mM from a […] in DMSO). • After the 6 hour cell treatment time tap out the media from the assay plates and place them in the −70° C. freezer for at least 5 minutes. • Remove plates from freezer and add 20 μL of ice cold complete lysis buffer on ice. Incubate cells for 30 minutes at 4° C. • Add 80 μL per well 2% BSA. • Transfer 80 μL from the lysis plate to the same wells in the capture/ELISA plate. Cover with plate seal and incubate plates overnight at 4° C. • Wash plates with PBS, remove any residual remaining liquid and add 50 μL per well of pMCM2 Ser53 antibody (#A300-756A) diluted 1 in 100 in 2% BSA. Cover plate and incubate at room temperature for 2 hours with gentle shaking. • Wash plates with PBS, remove any residual remaining liquid and Incubate with 50 μL goat anti rabbit antibody (1 in 800 dilution in 2% BSA) for 1 hour at room temperature. • Wash plates with PBS, remove any residual remaining liquid and add 50 μL mixed SuperSignal Pico substrate. • Incubate each plate for 5 minutes at room temperature shielding the plates from direct light (with a cover plate). Read plates with the luminescent detection. Method 2

Chain of Cdc7 (O00311 whole entry): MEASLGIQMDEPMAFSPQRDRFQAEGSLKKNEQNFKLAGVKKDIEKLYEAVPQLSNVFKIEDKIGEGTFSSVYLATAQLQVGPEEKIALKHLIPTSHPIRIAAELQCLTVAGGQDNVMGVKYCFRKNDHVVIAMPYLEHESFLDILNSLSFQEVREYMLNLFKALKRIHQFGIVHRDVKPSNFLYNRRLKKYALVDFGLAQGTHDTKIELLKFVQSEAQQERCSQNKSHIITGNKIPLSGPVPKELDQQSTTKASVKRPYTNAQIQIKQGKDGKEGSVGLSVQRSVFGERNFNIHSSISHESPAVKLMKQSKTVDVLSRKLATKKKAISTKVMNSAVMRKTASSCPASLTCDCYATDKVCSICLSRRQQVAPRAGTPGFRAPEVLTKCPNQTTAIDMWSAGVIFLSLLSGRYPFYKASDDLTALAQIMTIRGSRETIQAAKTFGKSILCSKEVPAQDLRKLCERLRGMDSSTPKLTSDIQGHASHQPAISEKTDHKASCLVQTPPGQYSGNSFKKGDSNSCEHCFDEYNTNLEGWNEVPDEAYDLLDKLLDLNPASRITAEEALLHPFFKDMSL
Chain of Cdc7 (Q9UBU7 whole entry partner): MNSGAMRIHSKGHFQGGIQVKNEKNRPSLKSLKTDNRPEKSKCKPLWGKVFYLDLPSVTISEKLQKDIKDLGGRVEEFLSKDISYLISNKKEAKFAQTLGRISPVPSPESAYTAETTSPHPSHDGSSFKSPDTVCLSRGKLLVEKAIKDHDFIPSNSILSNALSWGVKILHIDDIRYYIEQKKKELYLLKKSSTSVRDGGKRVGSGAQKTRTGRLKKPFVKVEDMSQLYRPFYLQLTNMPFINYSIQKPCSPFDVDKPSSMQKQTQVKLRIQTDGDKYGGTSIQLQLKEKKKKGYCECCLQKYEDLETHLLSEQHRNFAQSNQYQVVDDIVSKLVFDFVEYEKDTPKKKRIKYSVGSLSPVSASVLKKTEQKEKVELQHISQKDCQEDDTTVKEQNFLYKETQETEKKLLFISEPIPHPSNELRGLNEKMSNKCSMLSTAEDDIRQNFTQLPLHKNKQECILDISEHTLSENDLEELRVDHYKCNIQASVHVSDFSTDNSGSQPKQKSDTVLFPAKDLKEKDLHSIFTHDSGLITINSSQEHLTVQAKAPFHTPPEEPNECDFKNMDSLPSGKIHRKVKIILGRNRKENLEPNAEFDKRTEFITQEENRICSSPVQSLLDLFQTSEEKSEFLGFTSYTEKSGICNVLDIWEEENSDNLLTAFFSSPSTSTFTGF

EC50 [nM] | SMILES
45.7 | O=c1[nH]c(-c2scnc2Cl)nc(C2CCOCC2)c1Cl [Compound 4, 5-chloro-2-(4-chlorothiazol-5-yl)-4-tetrahydropyran-4-yl-1H-pyrimidin-6-one]
107 | Cc1ncsc1-c1nc(C2CCOCC2)c(Cl)c(=O)[nH]1 [Compound 6, 5-chloro-2-(4-methylthiazol-5-yl)-4-tetrahydropyran-4-yl-1H-pyrimidin-6-one]
158 | O=c1[nH]c(-c2scnc2C(F)(F)F)nc(C2CCOCC2)c1Cl [Compound 14, 5-chloro-4-tetrahydropyran-4-yl-2-[4-(trifluoromethyl)thiazol-5-yl]-1H-pyrimidin-6-one]
112 | O=c1[nH]c(-c2cn[nH]c2C(F)(F)F)nc(C2CCOCC2)c1Cl [Compound 17, 5-chloro-4-tetrahydropyran-4-yl-2-[5-(trifluoromethyl)-1H-pyrazol-4-yl]-1H-pyrimidin-6-one]
45.7 | Cc1ncsc1-c1nc(N2CCN[C@@H](C(F)(F)F)C2)c(Cl)c(=O)[nH]1 [Compound 28, 5-chloro-2-(4-methylthiazol-5-yl)-4-[(3R)-3-(trifluoromethyl)piperazin-1-yl]-1H-pyrimidin-6-one]
